In patent US10800757B2, “Inhibitors of TRPC6” (Boehringer Ingelheim International GmbH, priority 2017, dated 2020):

Each compound was assayed against TRPC6 (Homo sapiens (Human), UniProt Q9Y210) (assay: High throughput screening assay: fluorescent calcium (Fluo4/AM) assay of TRPC6 channel activation by GSK1702934A in HEK293/TREx cells). Details: HEK293/TREx cells stably transfected with TRPC6; agonist GSK1702934A; 7 concentrations 20 μM to 0.027 μM, triplicate.
Assay type: cell-based
Source text: This screening assay measures TRPC6 (transient receptor potential cation channel, subfamily C, member 6) ion channel activation via addition either of the commercially available DAG ligand analogue OAG (1-oleoyl-2-acetyl-sn-glycerol) or of the TRPC6 agonist 1-[1-(4,5,6,7,8-pentahydrocyclohepta[2,1-d]thiophen-2-ylcarbonyl)-4-piperidyl]-3-hydrobenzimidazol-2-one (GSK1702934A). The assay utilizes a FLIPR fluorescent calcium sensor 4-(6-Acetoxymethoxy-2,7-difluoro-3-oxo-9-xanthenyl)-4′-methyl-2,2′-(ethylenedioxy)dianiline-N,N,N′,N′-tetraacetic acid tetrakis(acetoxymethyl) ester (Fluo4/AM) […]. Changes (increases) in intracellular membrane calcium concentration potential as measured by the fluorescent signal increase during membrane depolarization provide a measurement of channel activity.
The commercially available HEK293/TREx line (Invitrogen) was stably transfected with a TRPC6 construct and screened by conventional calcium imaging to find clones with TRPC6 expression following stimulation with 1 μg/ml tetracycline. These cells were maintained in the growth medium recommended by the manufacturer supplemented with 100 μg/ml hygromycin to promote retention of the TRPC6 construct. After growing to near confluency, cells were plated at a density of ^˜35,000 cells/well in 384 well CellBind plates (Corning) in the presence of 1 μg/ml tetracycline, and allowed to grow for 20-30 hrs. A nearly confluent monolayer resulted. Growth media was removed from the wells and cells were then loaded with […] Fluo4/AM diluted in Ringer's Solution (6.5 g NaCl, 0.42 g KCl, 0.25 g CaCl2) and 0.2 g of sodium bicarbonate; pH 7.4) supplemented with 1% Pluronic F-127 to a final concentration of 0.5 μM and incubated for 60 min, at room temperature. Dye solution was then removed from the cells by inverting plates with a sharp flick, and replaced with 25 μl Ringer's. Following ^˜0.5 hour for recovery from loading, cells were assayed using the Hamamatsu FDSS 6000 system, which permitted illumination at 485 nm. Frames were acquired at a rate of 0.2 Hz. During the assay, the plates were continuously vortexed, with pipette mixing of wells following addition of each reagent. For the screening assay, 26 μl of a diluted compound stock (at 50 μM) was added to each well for 2 minutes following the collection of a short (4 frame) baseline. 13 μl of agonist solution consisting of 125 nM GSK1702934A diluted in high-Ca2+Ringer solution (containing 90 mm Ca2+) was then added to each well, achieving a final concentration of 20 mm Ca2+ and 10 μM test compound. Data was collected for ^˜3 minutes following addition of high Ca2+Ringer. The fluorescent ratio for each well was divided by the initial fluorescent intensity for that well and the overall response was determined by averaging the fluorescent ratio of the last 4 frames acquired during the experiment excepting the final frame. Negative and Positive controls were included on each plate. Negative controls wells consisted of HEK293/TREx TRPC6 cells exposed to assay buffer and agonist solution, but no test compound. Positive control consisted of wells consisted of HEK293/TREx TRPC6 cells exposed to 25 μM 3-[(2-chlorophenoxy)methyl]phenyl piperidyl ketone (Chembridge) diluted in Ringer's solution and agonist solution. These controls defined zero percent and 100 percent block respectively, and intensity of each well was normalized to these values.
Compounds were tested in triplicate at all concentrations. Standard software was used to fit IC50 curves.

Chain of TRPC6 (Q9Y210 whole entry, species assumed): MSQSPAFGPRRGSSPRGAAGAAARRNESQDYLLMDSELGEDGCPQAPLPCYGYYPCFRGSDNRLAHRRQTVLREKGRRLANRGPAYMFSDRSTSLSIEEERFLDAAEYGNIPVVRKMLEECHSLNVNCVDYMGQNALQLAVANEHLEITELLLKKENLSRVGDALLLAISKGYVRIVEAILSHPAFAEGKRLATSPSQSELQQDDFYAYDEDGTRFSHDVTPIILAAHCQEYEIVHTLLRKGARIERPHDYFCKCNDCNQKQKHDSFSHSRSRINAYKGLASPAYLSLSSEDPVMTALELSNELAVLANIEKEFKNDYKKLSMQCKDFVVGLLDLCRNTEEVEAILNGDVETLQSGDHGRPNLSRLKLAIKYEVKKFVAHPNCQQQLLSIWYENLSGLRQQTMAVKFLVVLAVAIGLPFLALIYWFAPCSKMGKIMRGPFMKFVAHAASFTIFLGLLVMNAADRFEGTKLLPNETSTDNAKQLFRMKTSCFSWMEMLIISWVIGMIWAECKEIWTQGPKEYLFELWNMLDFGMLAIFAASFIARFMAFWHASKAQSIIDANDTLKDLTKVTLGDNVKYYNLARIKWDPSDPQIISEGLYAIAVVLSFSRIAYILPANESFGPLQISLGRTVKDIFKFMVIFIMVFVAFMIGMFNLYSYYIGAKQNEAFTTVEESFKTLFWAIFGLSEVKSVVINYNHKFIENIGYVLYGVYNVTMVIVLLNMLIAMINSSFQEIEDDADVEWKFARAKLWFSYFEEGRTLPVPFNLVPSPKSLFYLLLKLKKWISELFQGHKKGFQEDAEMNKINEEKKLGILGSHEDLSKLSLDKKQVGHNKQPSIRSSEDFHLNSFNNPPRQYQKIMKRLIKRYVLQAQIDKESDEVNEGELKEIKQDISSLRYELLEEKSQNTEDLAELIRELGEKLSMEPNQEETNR

Row | Compound | IC50 [nM]
1 | COc1cc(C(=O)N2CCN(c3cnc(N)cc3OC)C[C@@H]2CO)ncc1Oc1ccc(F)cc1 [Compound 42, [(R)-4-(6-Amino-4-methoxy-pyridin-3-yl)-2-hydroxymethyl-piperazin-1-yl]-[5-(4-fluoro-phenoxy)-4-methoxy-pyridin-2-yl]-methanone] | 140
2 | CCCOc1cnc(C(=O)N2CCC(c3ccc(N)nn3)CC2)cc1OC [Compound 76, [4-(6-Amino-pyridazin-3-yl)-piperidin-1-yl]-(4-methoxy-5-propoxy-pyridin-2-yl)-methanone] | 1800
3 | COc1cc(C(=O)N2CCN(c3cnc(N)cc3OC)C[C@H]2CO)ncc1Oc1ccccc1 [Compound 71, [(S)-4-(6-Amino-4-methoxy-pyridin-3-yl)-2-hydroxymethyl-piperazin-1-yl]-(4-methoxy-5-phenoxy-pyridin-2-yl)-methanone] | 850
4 | COc1cc(C(=O)N2CCC(c3ccc(N)nn3)CC2)ncc1OCc1ccccc1F [Compound 57, [4-(6-Amino-pyridazin-3-yl)-piperidin-1-yl]-[5-(2-fluoro-benzyloxy)-4-methoxy-pyridin-2-yl]-methanone] | 300
5 | COc1cc(C(=O)N2CCC(c3cnc(N)cc3OC)CC2)ncc1OCCC1CC1 [Compound 48, (6-Amino-4-methoxy-3′,4′,5′,6′-tetrahydro-2′H-[3,4′]bipyridinyl-1′-yl)-[5-(2-cyclopropyl-ethoxy)-4-methoxy-pyridin-2-yl]-methanone] | 250
6 | COc1cc(C(=O)N2CCC(c3cnc(N)cc3OC)CC2)ncc1OC(C)C [Compound 72, (6-Amino-4-methoxy-3′,4′,5′,6′-tetrahydro-2′H-[3,4′]bipyridinyl-1′-yl)-(5-isopropoxy-4-methoxy-pyridin-2-yl)-methanone] | 910
7 | COc1cc(C(=O)N2CCC(c3ccc(N)nn3)CC2)ncc1OCc1ccc(F)cc1 [Compound 41, [4-(6-Amino-pyridazin-3-yl)-piperidin-1-yl]-[5-(4-fluoro-benzyloxy)-4-methoxy-pyridin-2-yl]-methanone] | 180
8 | COc1cc(C(=O)N2CCC(c3nnc(N)cc3C)CC2)ncc1Oc1ccc(C(F)(F)F)cc1 [Compound 90, 6-(1-{4-Methoxy-5-[4-(trifluoromethyl)phenoxy]pyridine-2-carbonyl}piperidin-4-yl)-5-methylpyridazin-3-amine trifluoroacetic acid] | 364
9 | COc1cc(C(=O)N2CCC(c3ccc(N)nn3)CC2)ncc1O[C@@H](C)C1CC1 [Compound 79, [4-(6-Amino-pyridazin-3-yl)-piperidin-1-yl]-[5-((S)-1-cyclopropyl-ethoxy)-4-methoxy-pyridin-2-yl]-methanone] | 3700
10 | COc1cc(C(=O)N2CCC(c3ccc(N)nn3)CC2)ncc1OC1CCCCC1 [Compound 62, [4-(6-Amino-pyridazin-3-yl)-piperidin-1-yl]-(5-cyclohexyloxy-4-methoxy-pyridin-2-yl)-methanone] | 550
11 | COc1cc(C(=O)N2CCC(c3ccc(N)nn3)CC2)ncc1Oc1ccc(OC2CC2)cc1 [Compound 40, [4-(6-Amino-pyridazin-3-yl)-piperidin-1-yl]-[5-(4-cyclopropoxy-phenoxy)-4-methoxy-pyridin-2-yl]-methanone] | 170
12 | COc1cc(C(=O)N2C3CCC2CN(c2cnc(N)cc2OC)C3)ncc1Oc1ccc(F)cc1 [Compound 38, [3-(6-Amino-4-methoxy-pyridin-3-yl)-3,8-diaza-bicyclo[3.2.1]oct-8-yl]-[5-(4-fluoro-phenoxy)-4-methoxy-pyridin-2-yl]-methanone] | 170
13 | COc1cc(C(=O)N2CCC(c3cnc(N)cc3OC)CC2)ncc1O[C@H](C)C1CC1 [Compound 77, (6-Amino-4-methoxy-3′,4′,5′,6′-tetrahydro-2′H-[3,4′]bipyridinyl-1′-yl)-[5-((R)-1-cyclopropyl-ethoxy)-4-methoxy-pyridin-2-yl]-methanone] | 2200
14 | COc1cc(C(=O)N2CCC(c3ccc(N)nn3)CC2)ncc1Oc1ccc(OC(F)F)cc1 [Compound 54, [4-(6-Amino-pyridazin-3-yl)-piperidin-1-yl]-[5-(4-difluoromethoxy-phenoxy)-4-methoxy-pyridin-2-yl]-methanone] | 220
15 | COc1cc(C(=O)N2CCC(c3cnc(N)cc3OC)CC2)ncc1OCC1CCC1 [Compound 53, (6-Amino-4-methoxy-3′,4′,5′,6′-tetrahydro-2′H-[3,4′]bipyridinyl-1′-yl)-(5-cyclobutylmethoxy-4-methoxy-pyridin-2-yl)-methanone] | 210

The next compounds have a lower IC50 than those just listed; values first:

Row | IC50 [nM] | Compound
16 | 120 | COc1cc(C(=O)N2CCC(c3nnc(N)cc3C)CC2)ncc1Oc1ccccc1 [Compound 31, 6-[1-(4-Methoxy-5-phenoxypyridine-2-carbonyl)piperidin-4-yl]-5-methylpyridazin-3-amine trifluoroacetic acid]
17 | 70 | COc1cc(C(=O)N2CCC(c3ccc(N)nn3)CC2)ncc1OCC1CCC1 [Compound 25, [4-(6-Amino-pyridazin-3-yl)-piperidin-1-yl]-(5-cyclobutylmethoxy-4-methoxy-pyridin-2-yl)-methanone]
18 | 27 | COc1cc(C(=O)N2CCC(c3ccc(N)nn3)CC2)ncc1Oc1ccccc1 [Compound 16, [4-(6-Amino-pyridazin-3-yl)-piperidin-1-yl]-(4-methoxy-5-phenoxy-pyridin-2-yl)-methanone]
19 | 100 | COc1ccc(Oc2cnc(C(=O)N3CCC(c4cnc(N)cc4OC)CC3)cc2OC)cc1 [Compound 28, (6-Amino-4-methoxy-3′,4′,5′,6′-tetrahydro-2′H-[3,4′]bipyridinyl-1′-yl)-[4-methoxy-5-(4-methoxy-phenoxy)-pyridin-2-yl]-methanone]
20 | 54 | COc1cc(C(=O)N2CCC(c3cnc(N)cc3OC)CC2)ncc1Oc1ccccc1 [Compound 23, (6-Amino-4-methoxy-3′,4′,5′,6′-tetrahydro-2′H-[3,4′]bipyridinyl-1′-yl)-(4-methoxy-5-phenoxy-pyridin-2-yl)-methanone]
21 | < 27 | COc1cc(C(=O)N2CCC(c3cnc(N)cc3C)CC2)ncc1Oc1ccc(F)cc1 [Compound 2, (6-Amino-4-methyl-3′,4′,5′,6′-tetrahydro-2′H-[3,4′]bipyridinyl-1′-yl)-[5-(4-fluoro-phenoxy)-4-methoxy-pyridin-2-yl]-methanone]
22 | 27 | COc1cc(C(=O)N2CCC(c3cc(OC)c(N)nn3)CC2)ncc1Oc1ccc(F)cc1 [Compound 11, [4-(6-Amino-5-methoxy-pyridazin-3-yl)-piperidin-1-yl]-[5-(4-fluoro-phenoxy)-4-methoxy-pyridin-2-yl]-methanone]
23 | < 27 | COc1cc(C(=O)N2CCN(c3cnc(N)cc3OC)CC2)ncc1Oc1ccc(F)cc1 [Compound 1, 5-{4-[5-(4-Fluorophenoxy)-4-methoxypyridine-2-carbonyl]piperazin-1-yl}-4-methoxypyridin-2-amine]
24 | 75 | COC[C@H]1CN(c2cnc(N)cc2OC)CCN1C(=O)c1cc(OC)c(Oc2ccccc2)cn1 [Compound 27, [(R)-4-(6-Amino-4-methoxy-pyridin-3-yl)-2-methoxymethyl-piperazin-1-yl]-(4-methoxy-5-phenoxy-pyridin-2-yl)-methanone]
25 | < 27 | COc1cc(C(=O)N2CCC(c3ccc(N)nn3)CC2)ncc1Oc1ccc(OC(F)(F)F)cc1 [Compound 80, [4-(6-Amino-pyridazin-3-yl)-piperidin-1-yl]-[4-methoxy-5-(4-trifluoromethoxy-phenoxy)-pyridin-2-yl]-methanone]
